Legend:
collagenase (MMP1) = biological target: T1, collagenase (MMP1) (Homo sapiens, UniProt P03956); assay: MMP1 enzyme inhibition assay, coumarin-labelled peptide substrate; type: biochemical; details: read-out: MMP-1 (nM) inhibitory activity
T1 sequence (P03956 100-469): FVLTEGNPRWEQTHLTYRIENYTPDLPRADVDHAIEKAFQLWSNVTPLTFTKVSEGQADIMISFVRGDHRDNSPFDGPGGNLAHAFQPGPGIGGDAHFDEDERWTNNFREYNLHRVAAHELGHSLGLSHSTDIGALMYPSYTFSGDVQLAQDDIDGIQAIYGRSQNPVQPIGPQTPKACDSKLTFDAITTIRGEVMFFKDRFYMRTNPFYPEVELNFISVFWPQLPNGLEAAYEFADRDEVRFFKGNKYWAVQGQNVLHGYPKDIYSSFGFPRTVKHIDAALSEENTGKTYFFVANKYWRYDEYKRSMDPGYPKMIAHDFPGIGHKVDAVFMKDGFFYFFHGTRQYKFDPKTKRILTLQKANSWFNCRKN
Method: (§1) Stock solutions were made up as follows: • Assay Buffer: 100 mM Tris-HCl pH 7.6 containing 100 mM NaCl, 10 mM CaCl2, and 0.05% Brij 35 • Substrate: 0.4 mM McaPLGLDpaAR (from Bachem) (0.437 mg/ml) stock solution in 100% • DMSO (stored at −20° C.). Dilute to 8 μM in assay buffer. • Enzyme: Recombinant human 92 kDa gelatinase (MMP-9; APMA (4-aminophenylmercuric acetate)-activated if necessary) appropriately diluted in assay buffer.
(§2) Test Compounds were prepared initially as 10 mM compound solution in 100% DMSO, diluted to 1 mM in 100% DMSO, then serially diluted 3-fold in 100% DMSO across columns 1-10 of a 96-well microtitre plate Assay concentration range, 100 μM (column 1) to 5.1 nM (column 10)
(§3) The assay was performed in a total volume of 100 μl upper well in 96-well microtitre plates. Activated enzyme (20 μl) was added to the wells followed by 20 μl of assay buffer. Appropriate concentrations of test compounds dissolved in 10 μl of DMSO were then added followed by 50 μl of McaPLGLDpaAR (8 μM, prepared by dilution of DMSO stock in assay buffer). For each assay ten concentrations of test compound were examined in duplicate. Control wells lack either enzyme or test compound. The reactions were incubated at 37° C. for 2 hours. The fluorescence at 405 nm was measured immediately with an SLT Fluostar fluorometer (SLT Labinstruments GmbH, Grödig, Austria) using 320 nm excitation, without stopping the reaction.
(§4) The effect of the test compound was determined from the dose response curve generated by the 10 duplicate concentrations of inhibitor. The IC50 (the concentration of compound required to give a 50% decrease in enzyme activity) was obtained by fitting data to the equation, Y=a+((b−a)/(1+(c/X)^d)). (Y=inhibition achieved for a particular dose; X=the dose in nM; a=minimum y or zero % inhibition; b=maximum y or 100% inhibition; c=is the IC50; d=is the slope). The result was rounded to one significant figure.
(§5) Compounds of the invention were tested for inhibitory activity against collagenase (MMP1) in an assay using a coumarin-labelled peptide substrate, (7-methoxycoumarin-4-yl)acetyl-Pro-Leu-Gly-Leu-(3-[2,4-dinitrophenyl]-L-2,3-diaminopropionyl)-Ala-Arg-NH2 (McaPLGLDpaAR) (Knight et al, FEBS Lett. 1992; 263-266). The protocol for this assay was as described for the MMP9 assay above.

MMP-2 = biological target: T2, MMP-2 (Homo sapiens, UniProt P08253); assay: MMP-2 enzyme inhibition; type: biochemical; details: read-out: MMP-2 (nM) inhibitory activity
T2 sequence (P08253 110-660): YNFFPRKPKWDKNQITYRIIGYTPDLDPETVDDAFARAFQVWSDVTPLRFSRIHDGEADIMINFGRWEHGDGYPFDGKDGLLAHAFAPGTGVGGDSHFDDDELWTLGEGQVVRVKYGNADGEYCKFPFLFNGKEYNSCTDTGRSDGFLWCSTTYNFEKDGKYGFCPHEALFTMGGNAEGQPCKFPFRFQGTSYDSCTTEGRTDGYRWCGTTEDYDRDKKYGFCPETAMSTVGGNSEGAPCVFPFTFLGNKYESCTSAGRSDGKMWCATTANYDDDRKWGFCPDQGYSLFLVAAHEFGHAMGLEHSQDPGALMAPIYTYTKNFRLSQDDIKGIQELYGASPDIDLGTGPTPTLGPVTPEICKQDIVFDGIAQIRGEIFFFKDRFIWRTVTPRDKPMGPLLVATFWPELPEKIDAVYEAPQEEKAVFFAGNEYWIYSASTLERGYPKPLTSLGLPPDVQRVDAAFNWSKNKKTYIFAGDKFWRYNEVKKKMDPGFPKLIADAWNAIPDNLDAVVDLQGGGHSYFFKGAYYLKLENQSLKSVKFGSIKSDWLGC
Excerpt: For instance the inhibitory activities of some of the compounds of the examples against MMP-12, MMP-9, MMP-2 and MMP-1 are set out in the following table: […]

[1] = tested on: IL2-induced peritoneal recruitment of lymphocytes; assay: IL2-induced peritoneal recruitment of lymphocytes in mice; type: in vivo; details: C3H mice
Method: B. Biological Assay: IL2-Induced Peritoneal Recruitment of Lymphocytes in Mice Protocol
C3H Mice (Elevage Janvier) (8 week old, n=6) received IL2 (SPRI, 20 μg/kg, 40 ml/kg, ip) 15 min after administration of the test molecules. Twenty-four hours later, the animals were sacrificed and the lavage of the peritoneal cavity was conducted using 3×5 ml PBS-1 mM EDTA (+4° C.). After centrifugation (10 min at 3000 rpm), the pellet was resuspended in 1 ml PBS. The peritoneal cells were counted using a Beckman/Coulter counter. IL2 was solubilized in saline. The test compounds of the invention were solubilized or suspended in 0.5% carboxymethylcellulose (CMC)/0.25% Tween-20 and orally administered. […]

92 kDa gelatinase (MMP9) = 92 kDa gelatinase (MMP9) (Homo sapiens, UniProt P14780); assay: MMP9 enzyme inhibition assay, coumarin-labelled peptide substrate; type: biochemical; details: recombinant human MMP-9, 37° C., 2 hours; read-out: MMP-9 (nM) inhibitory activity
92 kDa gelatinase (MMP9), sequence (P14780 107-707 limits assumed): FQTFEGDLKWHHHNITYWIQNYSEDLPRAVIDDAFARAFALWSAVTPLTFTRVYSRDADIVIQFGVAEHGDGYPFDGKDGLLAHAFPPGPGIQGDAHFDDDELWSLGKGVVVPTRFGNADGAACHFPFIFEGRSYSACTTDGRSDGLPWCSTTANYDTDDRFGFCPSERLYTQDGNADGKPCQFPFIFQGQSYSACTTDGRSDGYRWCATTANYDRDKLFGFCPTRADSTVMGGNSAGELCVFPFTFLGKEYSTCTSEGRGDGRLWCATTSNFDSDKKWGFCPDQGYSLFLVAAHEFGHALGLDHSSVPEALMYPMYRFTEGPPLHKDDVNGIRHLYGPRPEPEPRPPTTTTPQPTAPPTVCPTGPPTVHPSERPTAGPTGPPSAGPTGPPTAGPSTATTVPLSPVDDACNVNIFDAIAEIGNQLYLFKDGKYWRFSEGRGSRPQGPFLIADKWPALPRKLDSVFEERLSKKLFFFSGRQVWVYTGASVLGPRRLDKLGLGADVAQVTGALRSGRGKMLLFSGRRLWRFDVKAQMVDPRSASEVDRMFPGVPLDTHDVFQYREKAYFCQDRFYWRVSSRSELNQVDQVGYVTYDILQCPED
Method: as §5, with “92 kDa gelatinase (MMP9)” for “collagenase (MMP1)”, “263-266).” for “263-266). The protocol for this assay was as described for the MMP9 assay above.”
as §1, §2, §3, §4

metalloelastase (MMP12) = metalloelastase (MMP12) (Homo sapiens, UniProt P39900); assay: MMP12 enzyme inhibition assay, coumarin-labelled peptide substrate; type: biochemical; details: read-out: MMP-12 (nM) inhibitory activity
metalloelastase (MMP12), sequence (P39900 106-470): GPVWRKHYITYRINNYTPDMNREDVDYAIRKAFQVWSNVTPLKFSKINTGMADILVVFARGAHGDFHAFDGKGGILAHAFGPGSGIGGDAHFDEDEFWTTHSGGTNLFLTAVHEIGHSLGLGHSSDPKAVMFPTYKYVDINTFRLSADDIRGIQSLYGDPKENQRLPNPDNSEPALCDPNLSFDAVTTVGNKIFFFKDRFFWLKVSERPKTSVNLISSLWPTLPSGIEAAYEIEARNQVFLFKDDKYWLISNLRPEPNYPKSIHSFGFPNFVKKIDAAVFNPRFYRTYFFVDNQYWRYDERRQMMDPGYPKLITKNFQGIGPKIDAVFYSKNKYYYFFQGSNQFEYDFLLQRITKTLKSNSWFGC
Method: as §1, §2, §3, §4
as §5, with “metalloelastase (MMP12)” for “collagenase (MMP1)”

[2] = 3 mg/kg po, 15 min before IL2 ip, cells counted 24 h later

Row | SMILES | IC50 (collagenase (MMP1)) [nM] | IC50 (MMP-2) [nM] | % Inhibition of IL2-induced peritoneal recruitment [1, 2] [%] | IC50 (92 kDa gelatinase (MMP9)) [nM] | IC50 (metalloelastase (MMP12)) [nM] | % Inhibition of IL2-induced peritoneal recruitment ([1]; 1 mg/kg sc (reference compound)) [%]
1 | CCOc1ccc(CCC[C@@H](C(=O)N2CCN(Cc3ccccc3)CC2)[C@H](O)C(=O)NO)cc1 [Example 14, 6-(4-ethoxy-phenyl)-2S-hydroxy-3R-(4-benzylpiperazine-1-carbonyl)-hexanoic acid hydroxyamide] | > 10000 | < 100 | 30 | < 100 | < 100 | –
2 | CCOc1ccc(CCC[C@@H](C(=O)N2CCN(Cc3ccncc3)CC2)[C@H](O)C(=O)NO)cc1 [Example 13, 6-(4-ethoxy-phenyl)-2S-hydroxy-3R-(4-pyridin-4-ylmethyl-piperazine-1-carbonyl)-hexanoic acid hydroxyamide] | > 10000 | < 100 | 47 | < 100 | < 100 | –
3 | C[C@@H]1C[C@H]2[C@@H]3CCC4=CC(=O)C=C[C@]4(C)[C@@]3(F)[C@@H](O)C[C@]2(C)[C@@]1(O)C(=O)CO [Dexamethazone, Dexamethasone, reference compound] | – | – | – | – | – | 76
4 | CCOc1ccc(CCC[C@@H](C(=O)N2CCN(c3ccccn3)CC2)[C@H](O)C(=O)NO)cc1 [Example 5, 6-(4-ethoxy-phenyl)-2S-hydroxy-3R-(4-pyridin-2-yl-piperazine-1-carbonyl)-hexanoic acid hydroxyamide] | > 10000 | < 100 | 50 | < 100 | < 100 | –
5 | CCOc1ccc(CCC[C@@H](C(=O)N2CCN(Cc3ccc4c(c3)OCO4)CC2)[C@H](O)C(=O)NO)cc1 [Example 12, 3R-(4-benzo[1,3]dioxol-5-ylmethyl-piperazine-1-carbonyl)-6-(4-ethoxy-phenyl)-2S-hydroxy-hexanoic acid hydroxyamide] | > 10000 | < 100 | – | < 100 | < 100 | –
6 | CCOc1ccc(CCC[C@@H](C(=O)N2CCN(c3ccncc3)CC2)[C@H](O)C(=O)NO)cc1 [Example 6, 6-(4-ethoxy-phenyl)-2S-hydroxy-3R-(4-pyridin-4-yl-piperazine-1-carbonyl)-hexanoic acid hydroxyamide] | > 10000 | 100 to 1000 | 33 | 100 to 1000 | < 100 | –
7 | CCOc1ccc(CCC[C@@H](C(=O)N2CCN(c3ccc(OC)cc3)CC2)[C@H](O)C(=O)NO)cc1 [Example 4, 6-(4-ethoxy-phenyl)-2S-hydroxy-3R-[4-(4-methoxy-phenyl)-piperazine-1-carbonyl]-hexanoic acid hydroxyamide] | > 10000 | < 100 | 34 | < 100 | < 100 | –
8 | CCOc1ccc(CCC[C@@H](C(=O)N2CCN(c3ccccc3F)CC2)[C@H](O)C(=O)NO)cc1 [Example 20, 6-(4-ethoxy-phenyl)-2S-hydroxy-3R-[4-(2-fluoro-phenyl)-piperazine-1-carbonyl]-hexanoic acid hydroxyamide] | > 10000 | < 100 | 57 | < 100 | < 100 | –
9 | CCOc1ccc(CCC[C@@H](C(=O)N2CCN(c3ccccc3F)CC2)[C@H](OC)C(=O)NO)cc1 [Example 62, 6-(4-ethoxy-phenyl)-2S-methoxy-3R-[4-(2-fluoro-phenyl)-piperazine-1-carbonyl]-hexanoic acid hydroxyamide] | > 10000 | < 100 | – | < 100 | < 100 | –

Source: US7786121B2, “Derivatives of hydroxamic acid as metalloproteinase inhibitors” (Vernalis (Oxford) Limited, priority 2003, dated 2010)
